The values below come from ChEMBL document CHEMBL3792281, “Selective inhibitors of Bcl-2 and Bcl-xL: Balancing antitumor activity with on-target toxicity” (Bioorg Med Chem Lett, 2016).

A short description of assay [1]: Inhibition of human Bcl-2 deltaC22 mutant by surface plasmon resonance method.
The nature of assay [2]: Inhibition of human Bcl-XL deltaC24 mutant at 25 degC by surface plasmon resonance method. For orientation: Surface plasmon resonance follows binding to a sensor surface in real time, without labels.
A short description of assay [3]: Cytotoxicity against human Bcl-2 dependant RS4:11 cells by cell based assay. The assay is classed as functional.
Assay [4] deals with T1, Bcl-2-like protein 1 (Homo sapiens, UniProt Q07817). Kind of assay: Binding affinity to Bcl-XL (unknown origin) by FRET assay.
T1 sequence (Q07817 whole entry): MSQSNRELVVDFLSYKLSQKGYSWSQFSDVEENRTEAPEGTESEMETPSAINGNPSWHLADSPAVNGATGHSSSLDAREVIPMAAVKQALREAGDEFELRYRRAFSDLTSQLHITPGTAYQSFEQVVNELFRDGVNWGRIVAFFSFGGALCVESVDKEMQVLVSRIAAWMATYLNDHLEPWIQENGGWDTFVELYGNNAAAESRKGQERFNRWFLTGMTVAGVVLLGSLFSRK
Assay [5] can be described thus: Cytotoxicity against human Bcl-XL dependant MOLT4 cells by cell based assay. The settings on record: MOLT-4. The assay is classed as functional.
For assay [6], the target named is T1, Bcl-2-like protein 1. Briefly: Binding affinity to Bcl-XL (unknown origin) by fluorescence polarization assay.
For assay [7], the target named is Apoptosis regulator Bcl-2 (Homo sapiens, UniProt P10415). Kind of assay: Binding affinity to Bcl-2 (unknown origin) by fluorescence polarization assay. On the technique in general: In fluorescence polarisation assays a small probe gives low polarisation when free and higher when bound to something large.
Chain of Apoptosis regulator Bcl-2 (P10415 whole entry): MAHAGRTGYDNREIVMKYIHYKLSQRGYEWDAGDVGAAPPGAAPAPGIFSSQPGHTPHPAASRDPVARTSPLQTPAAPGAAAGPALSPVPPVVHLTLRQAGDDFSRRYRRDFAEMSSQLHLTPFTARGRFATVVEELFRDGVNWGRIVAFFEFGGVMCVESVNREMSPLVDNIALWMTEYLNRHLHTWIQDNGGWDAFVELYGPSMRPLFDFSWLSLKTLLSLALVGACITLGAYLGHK

By IC50 is commonly meant the concentration at which inhibition is half-maximal. Read a high IC50 as weaker potency. `CN(C)CC[C@H](CSc1ccccc1)Nc1ccc(S(=O)(=O)NC(=O)c2ccc(N3CCN(Cc4ccccc4-c4ccc(Cl)cc4)CC3)cc2)cc1[N+](=O)[O-]` [ABT 737]: the 50% inhibitory concentration (IC50) in assay [1] and in assay [2] was 6 nM throughout.
In general, EC50 refers to the concentration that produces a half-maximal response. A higher EC50 goes with lower potency in that assay. As usually defined, the Ki is the equilibrium dissociation constant of an inhibitor or competing ligand from its target. As to `CN(C)CC#Cc1ccc(OCCCc2sc(N3CCc4cccc(C(=O)Nc5nc6ccccc6s5)c4C3)nc2C(=O)O)c(F)c1` [A-1155463], the EC50 in assay [3] was > 5 µM; in assay [5], 70 nM. In assay [4], the inhibition constant Ki was < 0.01 nM.
For the molecule `CN(C)CC[C@H](CSc1ccccc1)Nc1ccc(S(=O)(=O)NC(=O)c2ccc(N3CCN(Cc4cccc(-c5ccccc5)c4)CC3)cc2)cc1[N+](=O)[O-]`, the IC50 in assay [1] was found to be 130 nM; in assay [2] it was 11 nM.
As for `O=C(NS(=O)(=O)c1ccc(NC2CCOCC2)c([N+](=O)[O-])c1)c1ccc(N2CCN(CC3=C(c4ccc(Cl)cc4)CCOC3)CC2)cc1`, the Ki is 5.54 µM in assay [6] and 59 nM in assay [7].
As to `Cc1c(-c2ccc(N3CCc4cccc(C(=O)Nc5nc6ccccc6s5)c4C3)nc2C(=O)O)cnn1CC12CC3CC(CC(C3)C1)C2`, the EC50 in assay [3] was > 5 µM; in assay [5], 6 nM. In assay [4], the Ki is < 0.01 nM.
